Patent publication US10294202B2, “Pyrrolidinones as herbicides” (FMC Corporation, priority 2013, dated 2019)

Experiments:
[1] = system: waterhemp; assay: Test C pre-/postemergence herbicide test; type: in vivo, Amaranthus rudis; settings: Preemergence
Description: (§1) Seeds of plant species selected from blackgrass (Alopecurus myosuroides), ryegrass, Italian (Italian ryegrass, Lolium multiflorum), wheat (winter wheat, Triticum aestivum), galium (catchweed bedstraw, Galium aparine), corn (Zea mays), crabgrass, large (large crabgrass, Digitaria sanguinalis), foxtail, giant (giant foxtail, Setaria faberii), johnsongrass (Sorghum halepense), lambsquarters (Chenopodium album), morningglory (Ipomoea coccinea), nutsedge, yellow (yellow nutsedge, Cyperus esculentus), pigweed (Amaranthus retroflexus), ragweed (common ragweed, Ambrosia elatior), soybean (Glycine max), barnyardgrass (Echinochloa crus-galli), oilseed rape (Brassica napus), waterhemp (common waterhemp, Amaranthus rudis), kochia (Kochia scoparia), oat, wild (wild oat, Avena fatua), surinam grass (Brachiaria decumbens), foxtail, green (green foxtail, Setaria viridis), goosegrass (Eleusine indica), bromegrass, downy (downy bromegrass, Bromus tectorum), nightshade (eastern black nightshade, Solanum ptycanthum), cocklebur (common cocklebur, Xanthium strumarium), cupgrass, woolly (woolly cupgrass, Eriochloa villosa), bermudagrass (Cynodon dactylon), sunflower, (common oilseed sunflower, Helianthus annuus), Russian thistle (Salsola kali) and velvetleaf (Abutilon theophrasti) were planted into a blend of loam soil and sand and treated preemergence with test chemicals formulated in a non-phytotoxic solvent mixture which included a surfactant. At the same time, plants selected from these crop and weed species and also barley (winter barley, Hordeum vulgare), […]), chickweed (common chickweed, Stellaria media), deadnettle (henbit deadnettle, Lamium amplexicaule), and canarygrass (littleseed canarygrass, Phalaris minor) were planted in pots containing Redi-Earth® planting medium (Scotts Company, 14111 Scottslawn Road, Marysville, Ohio 43041) comprising spaghnum peat moss, vermiculite, wetting agent and starter nutrients and treated with postemergence applications of test chemicals formulated in the same manner. Plants ranged in height from 2 to 18 cm (1- to 4-leaf stage) for postemergence treatments. Treated plants and controls were maintained in a greenhouse for 13 to 15 days, after which time all species were compared to controls and visually evaluated. Plant response ratings, summarized in Table C, are based on a scale of 0 to 100 where 0 is no effect and 100 is complete control. A dash (-) response means no test result.

[2] = system: morningglory; assay: Test C pre-/postemergence herbicide test; type: in vivo, Ipomoea coccinea; settings: Preemergence; for Plant response rating (scale of 0 to 100), Morningglory: 250 g ai/ha
Description: as §1

[3] = system: sedge, umbrella; assay: Test B flooded paddy test; type: in vivo, Cyperus difformis; settings: 500 g ai/ha, Flood; scale of 0 to 100 where 0 is no effect and 100 is complete control
In short: (§2)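 Plants grown to 2-leaf stage; pots flooded 3 cm above soil and compound applied directly into paddy water, depth held throughout. Visual rating against untreated controls after 13 to 15 days in greenhouse, 0 (no effect) to 100 (complete control).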

[4] = system: soybean; assay: Test C pre-/postemergence herbicide test; type: in vivo, Glycine max; settings: Preemergence
Description: as §1

[5] = system: johnsongrass; assay: Test C pre-/postemergence herbicide test; type: in vivo, Sorghum halepense; settings: Preemergence; for Plant response rating (scale of 0 to 100), Johnsongrass: 250 g ai/ha
Description: as §1

[6] = system: corn; assay: Test A pre-/postemergence herbicide test; type: in vivo, Zea mays; settings: for Corn plant response rating: Preemergence; for Corn plant response rating (crop injury, 0 = no effect, 100 = complete kill) at 125 g/ha / Corn plant response rating (crop injury, 0 = no effect, 100 = complete kill) at 500 g/ha: Zea mays, 240 h; for Corn plant response rating (crop injury, 0 = no effect, 100 = complete kill) at 125 g/ha: 100 complete control
In short: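 Directed soil spray to seeded pots (preemergence) or spray onto one- to two-leaf seedlings 2–10 cm tall (postemergence); loam/sand substrate throughout. Evaluated visually after about 10 days against untreated plants, 0 = no effect, 100 = complete control.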

[7] = system: barnyardgrass; assay: Test C pre-/postemergence herbicide test; type: in vivo, Echinochloa crus-galli; settings: Preemergence; for Plant response rating (scale of 0 to 100; 0 is no effect, 100 is complete control), Barnyardgrass: 250 g ai/ha
Description: as §1

[8] = system: lambsquarters; assay: Test C pre-/postemergence herbicide test; type: in vivo, Chenopodium album; settings: Preemergence; for Plant response rating, Lambsquarters: 125 g ai/ha; for Plant response rating (scale of 0 to 100), Lambsquarters: 250 g ai/ha
Description: as §1

[9] = system: ragweed; assay: Test C pre-/postemergence herbicide test; type: in vivo, Ambrosia elatior; settings: Preemergence
Description: as §1

[10] = system: rice; assay: Test B flooded paddy test; type: in vivo, Oryza sativa; settings: 500 g ai/ha, Flood; scale of 0 to 100 where 0 is no effect and 100 is complete control
In short: as §2

[11] = 62 g ai/ha, scale 0 to 100 (0 no effect, 100 complete control)
[12] = 125 g ai/ha, scale 0 to 100 (0 no effect, 100 complete control)
[13] = 125 g ai/ha, visual rating on 0 to 100 scale (0 no effect, 100 complete control)
[14] = post-emergence, Postemergence, 125 g ai/ha, 0 to 100 scale
[15] = post-emergence, Postemergence, 500 g ai/ha, 0 to 100 scale (0 no effect, 100 complete control)
[16] = pre-emergence, preemergence, 500 g ai/ha, 0 to 100 scale
[17] = 31 g ai/ha, scale 0 to 100, 0 is no effect and 100 is complete control

SMILES	Waterhemp plant response rating [1, 11]	Morningglory plant response rating [2, 11]	Plant response rating (scale of 0 to 100), Morningglory [2]	Plant response rating, Sedge, Umbrella [3]	Soybean plant response rating [4, 11]	Johnsongrass plant response rating [5, 11]	Plant response rating (scale of 0 to 100), Johnsongrass [5]	Plant response rating, Barnyardgrass [7, 12]	Plant response rating (scale of 0 to 100; 0 is no effect, 100 is complete control), Barnyardgrass [7]	Lambsquarters plant response rating [8, 11]	Plant response rating (scale of 0 to 100), Lambsquarters [8]	Ragweed plant response rating [9, 11]	Plant response rating, Rice [10]	Corn plant response rating [6, 13]	Corn plant response rating (crop injury, 0 = no effect, 100 = complete kill) at 125 g/ha [6, 14]	Corn plant response rating (crop injury, 0 = no effect, 100 = complete kill) at 500 g/ha [6, 15]	Corn plant response rating (crop injury, 0 = no effect, 100 = complete kill) at 500 g/ha [6, 16]	other results
O=C1NCC(c2ccc(OC(F)F)cc2)C1C(=O)Nc1cccc(F)c1F (racemic) [Compound 350]	50	100	100	0	0	0	30	90	90	90	90	0	0					Plant response rating, Waterhemp ([1]; 125 g ai/ha, scale 0 to 100): 90; Plant response rating, Waterhemp ([1]; 31 g ai/ha, scale 0 to 100): 0; Plant response rating, Morningglory ([2]; 125 g ai/ha, scale 0 to 100): 100; Plant response rating, Morningglory ([2]; 31 g ai/ha, scale 0 to 100): 100; Plant response rating, Soybean ([4]; 125 g ai/ha, scale 0 to 100): 0; Plant response rating, Soybean ([4]; 31 g ai/ha, scale 0 to 100): 0; Plant response rating, Johnsongrass ([5]; 125 g ai/ha, scale 0 to 100): 0; Plant response rating, Johnsongrass ([5]; 31 g ai/ha, scale 0 to 100): 0; Plant response rating, Corn ([6]; Postemergence, 125 g ai/ha, visual rating on 0 to 100 scale (0 no effect, 100 complete control), approx. 10 days): 20; Plant response rating, Corn ([6]; Postemergence, 500 g ai/ha, 0 to 100 scale (0 no effect, 100 complete control)): 40; Barnyardgrass plant response rating [7, 11]: 90; Plant response rating, Barnyardgrass ([7]; 31 g ai/ha, scale 0 to 100): 75; Plant response rating, Lambsquarters ([8]; scale 0 to 100): 90; Plant response rating, Ragweed ([9]; 125 g ai/ha, scale 0 to 100): 5; Plant response rating, Ragweed ([9]; 31 g ai/ha, scale 0 to 100): 0
O=C1NCC(Br)(c2ccccc2)C1C(=O)Nc1ccccc1F (centres unmarked) [Compound 92, 4-bromo-N-(2-fluorophenyl)-2-oxo-4-phenyl-3-pyrrolidinecarboxamide]														0	0%	0%	0%	
O=C1NCC(c2ccccc2)C1(Br)C(=O)Nc1ccccc1F (centres unmarked) [Compound 93, 3-bromo-N-(2-fluorophenyl)-2-oxo-4-phenyl-3-pyrrolidinecarboxamide]														0	0%	0%	0%	
O=C1NCC(c2ccc(Cl)cc2)C1C(=O)Nc1cccc(F)c1F (centres unmarked) [Compound 218]	75	0	20	0	5	10	40	95	95	40	85	35	0					Waterhemp plant response rating [1, 17]: 30; Plant response rating, Waterhemp [1, 12]: 90; Plant response rating (scale of 0 to 100), Waterhemp ([1]; 250 g ai/ha): 90; Morningglory plant response rating [2, 17]: 0; Plant response rating, Morningglory [2, 12]: 25; Soybean plant response rating [4, 17]: 0; Plant response rating, Soybean [4, 12]: 40; Plant response rating (scale of 0 to 100), Soybean ([4]; 250 g ai/ha): 20; Johnsongrass plant response rating [5, 17]: 0; Plant response rating, Johnsongrass [5, 12]: 15; Plant response rating, Corn ([6]; Postemergence, 125 g ai/ha, 0 to 100 scale, 0 is no effect, 100 is complete control): 20; Corn plant response rating (0 to 100 scale, 0 is no effect, 100 is complete control) ([6]; Postemergence, 500 g ai/ha): 30; Barnyardgrass plant response rating [7, 17]: 80; Plant response rating, Barnyardgrass ([7]; 62 g ai/ha, scale 0 to 100): 90; Lambsquarters plant response rating [8, 17]: 10; Plant response rating, Lambsquarters ([8]; scale 0 to 100 (0 no effect, 100 complete control)): 75; Ragweed plant response rating [9, 17]: 40; Plant response rating, Ragweed [9, 12]: 50; Plant response rating (scale of 0 to 100), Ragweed ([9]; 250 g ai/ha): 85
